The source made the active and inactive calls. The calls are words filed in the database; no cut-off is given here.
Assays:
[1] = target: T1, fMet-Leu-Phe receptor (Homo sapiens) (UniProt P21462); test: Antagonist activity at FPR1 in human peripheral blood polymorphonuclear neutrophils assessed as inhibition of N-(4-chlorophenyl)-N'-(5-isopropyl-1-methyl-3-oxo-2-phenyl-2,3-dihydro-1H-pyrazol-4-yl)urea-induced ROS production at 500 nM preincubated for 5 mins followed N-(4-chlorophenyl)-N'-(5-isopropyl-1-methyl-3-oxo-2-phenyl-2,3-dihydro-1H-pyrazol-4-yl)urea stimulation by isoluminol/HRP-based chemiluminescence assay
T1 sequence (whole entry): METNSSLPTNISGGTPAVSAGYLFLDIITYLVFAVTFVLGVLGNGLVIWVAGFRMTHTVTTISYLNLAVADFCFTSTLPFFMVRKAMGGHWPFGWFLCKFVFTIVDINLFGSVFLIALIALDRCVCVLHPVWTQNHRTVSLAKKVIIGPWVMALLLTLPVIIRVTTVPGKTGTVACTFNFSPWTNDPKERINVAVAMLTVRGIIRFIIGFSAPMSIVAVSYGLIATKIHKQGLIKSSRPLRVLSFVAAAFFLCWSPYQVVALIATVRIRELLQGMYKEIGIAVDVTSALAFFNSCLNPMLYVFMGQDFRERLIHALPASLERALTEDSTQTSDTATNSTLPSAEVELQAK

[2] = target: T2, N-formyl peptide receptor 2 (Homo sapiens) (UniProt P25090); details: 100 nM
T2 sequence (whole entry): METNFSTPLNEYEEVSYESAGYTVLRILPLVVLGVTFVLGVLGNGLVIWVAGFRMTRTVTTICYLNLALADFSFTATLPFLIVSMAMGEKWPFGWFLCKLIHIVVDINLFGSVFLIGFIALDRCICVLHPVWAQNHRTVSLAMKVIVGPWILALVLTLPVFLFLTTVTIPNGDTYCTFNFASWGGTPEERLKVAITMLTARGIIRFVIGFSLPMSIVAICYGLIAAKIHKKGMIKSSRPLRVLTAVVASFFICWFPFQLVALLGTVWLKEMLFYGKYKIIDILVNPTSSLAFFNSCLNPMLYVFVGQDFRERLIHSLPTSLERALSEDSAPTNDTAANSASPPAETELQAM
Description: Antagonist activity at FPR2 in human peripheral blood polymorphonuclear neutrophils assessed as inhibition of PSMalpha2-peptide induced ROS production at 100 nM preincubated for 5 mins followed PSMalpha2-peptide stimulation by isoluminol/HRP-based chemiluminescence assay

[3] = target: T2, N-formyl peptide receptor 2 (Homo sapiens); details: 100 nM; remark: listed apart in the source
Description: Antagonist activity at FPR2 in human peripheral blood polymorphonuclear neutrophils assessed as inhibition of Lau-Aoc-(Lys-betaNphe)6-NH2-induced ROS production at 100 nM preincubated for 5 mins followed Lau-Aoc-(Lys-betaNphe)6-NH2 stimulation by isoluminol/HRP-based chemiluminescence assay

[4] = target: T2, N-formyl peptide receptor 2 (Homo sapiens); details: 100 nM; remark: listed apart in the source
Description: Antagonist activity at FPR2 in human peripheral blood polymorphonuclear neutrophils assessed as inhibition of F2Pal10-induced ROS production at 100 nM preincubated for 5 mins followed F2Pal10 stimulation by isoluminol/HRP-based chemiluminescence assay

[5] = target: T2, N-formyl peptide receptor 2 (Homo sapiens); details: 100 nM; remark: listed apart in the source
Description: Antagonist activity at FPR2 in human peripheral blood polymorphonuclear neutrophils assessed as inhibition of WKYMVM-induced ROS production at 100 nM preincubated for 5 mins followed Lau-Aoc-(Lys-betaNphe)6-NH2 stimulation by isoluminol/HRP-based chemiluminescence assay

[6] = target: T1, fMet-Leu-Phe receptor (Homo sapiens); test: Antagonist activity at FPR1 in human peripheral blood polymorphonuclear neutrophils assessed as inhibition of fMIFL-induced ROS production at 500 nM preincubated for 5 mins followed fMIFL stimulation by isoluminol/HRP-based chemiluminescence assay
[7] = target: T1, fMet-Leu-Phe receptor (Homo sapiens); test: Antagonist activity at FPR1 in human peripheral blood polymorphonuclear neutrophils assessed as inhibition of fMLF-induced ROS production at 500 nM preincubated for 5 mins followed fMIFL stimulation by isoluminol/HRP-based chemiluminescence assay
[8] = target: T1, fMet-Leu-Phe receptor (Homo sapiens); test: Antagonist activity at FPR1 in human peripheral blood polymorphonuclear neutrophils assessed as inhibition of fMLF-induced ROS production at <500 nM preincubated for 5 mins followed fMLF stimulation by isoluminol/HRP-based chemiluminescence assay
[9] = target: T2, N-formyl peptide receptor 2 (Homo sapiens); details: 100 nM; remark: listed apart in the source
Description: Displacement of Cy5-WKYMVM from FPR2 in human peripheral blood polymorphonuclear neutrophils at 100 nM preincubated for 10 mins followed by Cy5-WKYMVM addition measured after 60 mins by fluorescence based assay

[10] = target: T3, N-formyl peptide receptor 2 (Homo sapiens, UniProt P25090); test: (§1) Antagonist activity at FPR2 in human peripheral blood polymorphonuclear neutrophils assessed as inhibition of WKYMVM-peptide induced ROS production preincubated for 5 mins followed WKYMVM-peptide stimulation by isoluminol/HRP-based chemiluminescence assay
T3 sequence (P25090 whole entry): T2 sequence (whole entry)

[11] = target: T1, fMet-Leu-Phe receptor (Homo sapiens); test: Antagonist activity at FPR1 in human peripheral blood polymorphonuclear neutrophils assessed as inhibition of fMLF-induced ROS production at >= 500 nM preincubated for 5 mins followed fMLF stimulation by isoluminol/HRP-based chemiluminescence assay
Neutrophil = test: Inhibition of PMA-induced superoxide production in human peripheral blood polymorphonuclear neutrophils at 500 nM preincubated for 5 mins followed PMA stimulation by isoluminol/HRP-based chemiluminescence assay; format: functional, cell-based
[12] = target: T2, N-formyl peptide receptor 2 (Homo sapiens); test: as §1

inhibition [1] | inhibition [2] | inhibition [3] | inhibition [4] | inhibition [5] | inhibition [6] | inhibition [7] | inhibition [8] | inhibition [9] | IC50 [10] [nM] | inhibition [11] | inhibition [12] | SMILES | inhibition (Neutrophil)
inactive | Active | Active | Active | Active | inactive | inactive | inactive | Active | 15 | – | – | CCN(CC)c1ccc2c(-c3ccccc3C(=O)N[C@@H](CCCCN)C(=O)N(CCC(=O)N[C@@H](CCCCN)C(=O)N(CCC(=O)N[C@@H](CCCCN)C(=O)N(CCC(=O)N[C@@H](CCCCN)C(=O)N(CCC(=O)N[C@@H](CCCCN)C(=O)N(CCC(=O)N[C@@H](CCCCN)C(=O)N(CCC(N)=O)Cc3ccccc3)Cc3ccccc3)Cc3ccccc3)Cc3ccccc3)Cc3ccccc3)Cc3ccccc3)c3ccc(=[N+](CC)CC)cc-3oc2c1 | –
– | – | – | – | – | – | – | – | – | 94 | Active | – | CCN(CC)c1ccc2c(-c3ccccc3C(=O)N[C@@H](CCCCN)C(=O)N(CCC(=O)N[C@@H](CCCCN)C(=O)N(CCC(=O)N[C@@H](CCCCN)C(=O)N(CCC(=O)N[C@@H](CCCCN)C(=O)N(CCC(=O)N[C@@H](CCCCN)C(=O)N(CCC(=O)N[C@@H](CCCCN)C(=O)N(CCC(N)=O)Cc3ccc(C(F)(F)F)cc3)Cc3ccc(C(F)(F)F)cc3)Cc3ccc(C(F)(F)F)cc3)Cc3ccc(C(F)(F)F)cc3)Cc3ccc(C(F)(F)F)cc3)Cc3ccc(C(F)(F)F)cc3)c3ccc(=[N+](CC)CC)cc-3oc2c1 | Active
– | – | – | – | – | – | – | – | – | – | – | Active | CCN(CC)c1ccc2c(-c3ccccc3C(=O)N[C@@H](CCC(N)=O)C(=O)N[C@@H](CCCNC(=N)N)C(=O)N[C@@H](CC(C)C)C(=O)N[C@@H](Cc3ccccc3)C(=O)N[C@@H](CCC(N)=O)C(=O)N[C@@H](C(=O)N[C@@H](CCCCN)C(=O)NCC(=O)N[C@@H](CCCNC(=N)N)C(=O)N[C@@H](CCCNC(=N)N)C(N)=O)C(C)C)c3ccc(=[N+](CC)CC)cc-3oc2c1 | –
